In patent US20210220241A1, “Body Sculpting” (Sculpt B.V., priority 2014, published 2021):

Experiments:
[1] = Stability / hydrolysis in PBS at 37 degrees (Example 6); assay type: physicochemical; settings: PBS at 37 degrees
Protocol: Samples were analyzed using HPLC UV.

[2] = Skin and fat penetration assay, cubes of human fat with skin (Example 8); assay type: in vitro ADME; settings: 0.25 ml hydrogel applied once, 20 hrs
Protocol: Cubes of human fat (5×5×5 cm) with skin attached from obese female subjects that underwent esthetic surgery was dissected at 4° C. Cubes were transferred to containers so the skin would overlay the rim of the container. 0.25 ml of hydrogels comprising 2.75 mg/ml free octopamine, 5 mg/ml octopamine decanoate or 3.98 mg/ml octopamine pentanoate were applied once and left to penetrate for 20 hrs. Cubes were subsequently frozen at −80° C.
Upon defrosting, skin was carefully removed taking care not to contaminate the underlying fat. The fat was dissected to yield a column of 1×1 cm of fat that was directly under the site of application. The column was sliced to yield 0.5 cm thick slices covering 0-2cm fat depth under the site of application. Tissue was sonicated in 5 ml PBS (5 mM glucose), samples were spun down (13000 rpm for 30 min at 4° C.). Clear supernatant was removed with an injection needle and syringe and frozen until analysis. Analysis of octopamine was performed as described in Example 7.

human subject = experiment: Removal of cellulite on a human subject (Example 11); assay type: in vivo; settings: hydrogel 3.98 mg/ml, 5 ml once daily, area with moderate cellulite, after three days
Protocol: A hydrogel comprising 3.98 mg/ml octopamine pentanoate (5 ml) was applied once daily on a human subject in an area with moderate cellulite.

human volunteers = experiment: Blood pressure, heart rate and side effects in human volunteers (Example 10); settings: humans, topical hydrogel treatment regimes
[3] = Plasma levels of octopamine in human volunteers (Example 10); assay type: in vivo; settings: humans, 2.5 ml or 5 ml hydrogel
Protocol: After thorough washing of hands, blood was sampled using […]. Blood (40 microliter) was sampled using a capillary that protruded the cap of the vial and spun down into 300 microliter vials containing 10 microliter of heparin 20 IE/ml. Plasma was pipetted off and transferred to 300 microliter vials and stored at -20° C. until analysis. Octopamine was analyzed as described in Example 7. […] FIG. 17b), and of octopamine pentanoate (3.98 mg/ml, 2.5 ml, once daily); FIG. 17c). Experiments are an average of one or two experiments (n=1-2).

CCCCC(=O)Oc1ccc(C(O)CN)cc1.Cl (stereo not drawn) [octopamine pentanoate, 4-(2-amino-1-hydroxyethyl)phenyl valeroate hydrochloride]
Hydrolysis in PBS compared with plasma or fat tissue [1]: much lower rate | Concentrations of free octopamine in fat layers (0-2 cm depth) compared with hydrogel comprising octopamine [2]: higher concentrations | Penetration through skin and fat tissue [2]: penetrate through both skin and fat tissue | Cellulite (human subject): noticeably decreased | Side effects (human volunteers): no side effects were reported | Plasma levels of free octopamine upon administration of hydrogel [3]: did not result in unacceptable plasma levels
